From ChEMBL document CHEMBL4725301, “Discovery of a novel 9-position modified second-generation anti-HCV candidate via bioconversion and semi-synthesis of FR901459” (Bioorg Med Chem Lett, 2020)
Values after ≈ are worked out from the molar mass of the structure shown.

Experiments:
[1] = Aqueous solubility of the compound in JP2 fluid at pH 6.8 by disintegration test; type: physicochemical
[2] = AUC (0 to 24 hrs) in po dosed rat; type: ADME, organism-based; set-up: time < 24 hr, route oral; conditions: in vivo
[3] = Oral bioavailability in rat; type: ADME, organism-based; conditions: in vivo
[4] = Inhibition of cyclophilin (unknown origin) assessed as inhibition of HCV #50-1 subgenomic viral replicon replication in presence of 5% FBS; set-up: species or system Homo sapiens
[5] = tested on: Splenocyte; experiment: Immunosuppressive activity in mouse splenocytes assessed as inhibition of concanavalinA-induced cell proliferation; type: cell-based
[6] = Inhibition of cyclophilin (unknown origin) assessed as inhibition of HCV #50-1 subgenomic viral replicon replication in presence of 50% human serum albumin
[7] = Inhibition of cyclophilin (unknown origin) assessed as inhibition of HCV FLR1 subgenomic viral replicon replication in presence of 10% FBS by luciferase reporter gene assay; set-up: species or system Homo sapiens
[8] = tested on: Hepatitis C virus; experiment: Antiviral activity against Hepatitis C virus genotype 1a infected in humanized liver SCID-Alb/uPA chimeric mouse assessed as log reduction in serum HCV RNA level at 15 mg/kg, po administered via gavage bid for 14 days cotreated with interferon-alfa2b at 400 U/g, sc administered qd measured for 7 days follow-up period without compound administration post-last dose; type: functional, Hepacivirus hominis, subtype 1a; conditions: time 14 day
[9] = Inhibition of cyclophilin (unknown origin) assessed as inhibition of HCV FLR1 subgenomic viral replicon replication in presence of 50% human serum albumin by luciferase reporter gene assay

| solubility [1] [µg/mL] | AUC(0-t) at 24 h [2] [ng·h/mL] | bioavailability [3] [%] | EC50 [4] [µg/mL] | EC50 [6] [µg/mL] | EC50 [7] [µg/mL] | EC50 [9] [µg/mL] | Structure (SMILES) | IC50 [5] [µg/mL] | log(activity) [8] |
| --- | --- | --- | --- | --- | --- | --- | --- | --- | --- |
| – | – | – | 0.099 | 0.56 | – | – | C/C=C/C[C@@H](C)[C@@H](O)[C@H]1C(=O)N[C@@H]([C@@H](C)O)C(=O)N(C)CC(=O)N(C)[C@@H](CC(C)C)C(=O)N[C@@H](CC(C)C)C(=O)N(C)[C@@H](CC(C)C)C(=O)N[C@@H](C)C(=O)N[C@H](C)C(=O)N[C@@H](C[C@H](C)COCC(=O)N2CCOCC2)C(=O)N[C@@H](CC(C)C)C(=O)N(C)[C@@H](C(C)C)C(=O)N1C | 0.92 (≈ 0.683 µM) | – |
| – | – | – | 0.16 | 0.22 | – | – | C/C=C/C[C@@H](C)[C@@H](O)[C@H]1C(=O)N[C@@H]([C@@H](C)O)C(=O)N(C)CC(=O)N(C)[C@@H](CC(C)C)C(=O)N[C@@H](CC(C)C)C(=O)N(C)[C@@H](CC(C)C)C(=O)N[C@@H](C)C(=O)N[C@H](C)C(=O)N[C@@H](C[C@H](C)COC(=O)N2CCN(C)CC2)C(=O)N[C@@H](CC(C)C)C(=O)N(C)[C@@H](C(C)C)C(=O)N1C | 1.9 (≈ 1.41 µM) | – |
| – | – | – | – | – | 0.11 | 0.25 | C/C=C/C[C@@H](C)[C@@H](O)[C@H]1C(=O)N[C@@H]([C@@H](C)O)C(=O)N(C)[C@H](COC)C(=O)N(C)[C@@H](CC(C)C)C(=O)N[C@@H](CC(C)C)C(=O)N(C)[C@@H](CC(C)C)C(=O)N[C@@H](C)C(=O)N[C@H](C)C(=O)N[C@@H](C[C@H](C)CN2CCOCC2)C(=O)N[C@@H](CC(C)C)C(=O)N(C)[C@@H](C(C)C)C(=O)N1C | – | – |
| – | – | – | 0.85 | 2.4 | – | – | C/C=C/C[C@@H](C)[C@@H](O)[C@H]1C(=O)N[C@@H]([C@@H](C)O)C(=O)N(C)CC(=O)N(C)[C@@H](CC(C)C)C(=O)N[C@@H](CC(C)C)C(=O)N(C)[C@@H](CC(C)C)C(=O)N[C@@H](C)C(=O)N[C@H](C)C(=O)N[C@@H](C[C@H](C)CO)C(=O)N[C@@H](CC(C)C)C(=O)N(C)[C@@H](C(C)C)C(=O)N1C | 0.28 (≈ 0.229 µM) | – |
| – | – | – | 0.096 | 3.7 | – | – | C/C=C/C[C@@H](C)[C@@H](O)[C@H]1C(=O)N[C@@H]([C@@H](C)O)C(=O)N(C)CC(=O)N(C)[C@@H](CC(C)C)C(=O)N[C@@H](CC(C)C)C(=O)N(C)[C@@H](CC(C)C)C(=O)N[C@@H](C)C(=O)N[C@H](C)C(=O)N[C@@H](CC(C)C)C(=O)N[C@@H](CC(C)C)C(=O)N(C)[C@@H](C(C)C)C(=O)N1C | 0.026 (≈ 0.0216 µM) | – |
| – | – | – | 0.22 | – | – | – | C/C=C/C[C@@H](C)[C@@H](O)[C@H]1C(=O)N[C@@H]([C@@H](C)O)C(=O)N(C)CC(=O)N(C)[C@@H](CC(C)C)C(=O)N[C@@H](CC(C)C)C(=O)N(C)[C@@H](CC(C)C)C(=O)N[C@@H](C)C(=O)N[C@H](C)C(=O)N[C@@H](C[C@H](C)CN2CCOCC2)C(=O)N[C@@H](CC(C)C)C(=O)N(C)[C@@H](C(C)C)C(=O)N1C | 0.12 (≈ 0.093 µM) | – |

Continued, molecule first:

| Structure (SMILES) | solubility [1] [µg/mL] | AUC(0-t) at 24 h [2] [ng·h/mL] | bioavailability [3] [%] | EC50 [4] [µg/mL] | EC50 [6] [µg/mL] | EC50 [7] [µg/mL] | EC50 [9] [µg/mL] | IC50 [5] [µg/mL] | log(activity) [8] |
| --- | --- | --- | --- | --- | --- | --- | --- | --- | --- |
| C/C=C/C[C@@H](C)[C@@H](O)[C@H]1C(=O)N[C@@H]([C@@H](C)O)C(=O)N(C)[C@H](C)C(=O)N(C)[C@@H]([C@@H](C)OC)C(=O)N[C@@H](CC(C)C)C(=O)N(C)[C@@H](CC(C)C)C(=O)N[C@@H](C)C(=O)N[C@H](C)C(=O)N[C@@H](CC(C)C)C(=O)N[C@@H](CC(C)C)C(=O)N(C)[C@@H](C(C)C)C(=O)N1C | 117 (≈ 95.9 µM) | 16100 | 36 | – | – | – | – | – | – |
| C/C=C/C[C@@H](C)[C@@H](O)[C@H]1C(=O)N[C@@H]([C@@H](C)O)C(=O)N(C)[C@H](COC)C(=O)N(C)[C@@H](CC(C)C)C(=O)N[C@@H](CC(C)C)C(=O)N(C)[C@@H](CC(C)C)C(=O)N[C@@H](C)C(=O)N[C@H](C)C(=O)N[C@@H](C[C@H](C)CN2CCOC(COC)(COC)C2)C(=O)N[C@@H](CC(C)C)C(=O)N(C)[C@@H](C(C)C)C(=O)N1C | 54 (≈ 38 µM) | 16900 | 28.3 | – | – | 0.063 | 0.1 | 1.7 (≈ 1.2 µM) | 2 |
| C/C=C/C[C@@H](C)[C@@H](O)[C@H]1C(=O)N[C@@H]([C@@H](C)O)C(=O)N(C)[C@H](COC)C(=O)N(C)[C@@H](CC(C)C)C(=O)N[C@@H](CC(C)C)C(=O)N(C)[C@@H](CC(C)C)C(=O)N[C@@H](C)C(=O)N[C@H](C)C(=O)N[C@@H](C[C@H](C)COC(=O)N(C)CCOC)C(=O)N[C@@H](CC(C)C)C(=O)N(C)[C@@H](C(C)C)C(=O)N1C | – | – | – | – | – | 0.06 | 0.097 | 0.85 (≈ 0.616 µM) | – |
| C/C=C/C[C@@H](C)[C@@H](O)[C@H]1C(=O)N[C@@H]([C@@H](C)O)C(=O)N(C)CC(=O)N(C)[C@@H](CC(C)C)C(=O)N[C@@H](CC(C)C)C(=O)N(C)[C@@H](CC(C)C)C(=O)N[C@@H](C)C(=O)N[C@H](C)C(=O)N[C@@H](C[C@H](C)COC(=O)NCCOC)C(=O)N[C@@H](CC(C)C)C(=O)N(C)[C@@H](C(C)C)C(=O)N1C | – | – | – | 0.097 | 0.55 | – | – | 0.75 (≈ 0.567 µM) | – |
| C/C=C/C[C@@H](C)[C@@H](O)[C@H]1C(=O)N[C@@H]([C@@H](C)O)C(=O)N(C)[C@H](COC)C(=O)N(C)[C@@H](CC(C)C)C(=O)N[C@@H](CC(C)C)C(=O)N(C)[C@@H](CC(C)C)C(=O)N[C@@H](C)C(=O)N[C@H](C)C(=O)N[C@@H](C[C@H](C)COC(=O)N2CCO[C@@H](COC)C2)C(=O)N[C@@H](CC(C)C)C(=O)N(C)[C@@H](C(C)C)C(=O)N1C | 73 (≈ 51.3 µM) | 12400 | 12.9 | – | – | 0.058 | 0.064 | 0.88 (≈ 0.619 µM) | – |
